From ChEMBL document CHEMBL1155089, “Discovery of an Aurora kinase inhibitor through site-specific dynamic combinatorial chemistry” (Bioorg Med Chem Lett, 2008)

Target: T1, Aurora kinase A (Homo sapiens, UniProt O14965)
T1 sequence (O14965 whole entry): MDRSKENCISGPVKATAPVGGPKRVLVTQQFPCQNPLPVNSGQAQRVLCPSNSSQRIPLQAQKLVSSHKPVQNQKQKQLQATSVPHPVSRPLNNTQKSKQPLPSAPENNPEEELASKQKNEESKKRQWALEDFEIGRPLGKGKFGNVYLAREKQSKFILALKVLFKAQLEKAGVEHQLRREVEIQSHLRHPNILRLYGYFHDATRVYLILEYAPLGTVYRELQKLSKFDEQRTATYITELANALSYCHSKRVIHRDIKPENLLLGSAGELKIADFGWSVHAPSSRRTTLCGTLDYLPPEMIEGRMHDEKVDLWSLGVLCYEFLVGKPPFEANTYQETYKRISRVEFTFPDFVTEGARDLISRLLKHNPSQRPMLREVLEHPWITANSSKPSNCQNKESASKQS
Experiment: Inhibition of Aurora kinase A

IC50 [µM]	Structure (SMILES)
> 100	CCCCCCNc1ncnc2nc[nH]c12
17	CCCCNC(=O)c1cccc(NC(=O)CCCCCCNc2cc(N)ncn2)c1
2.9	CCCCNC(=O)c1cccc(NC(=O)CCCCCNc2ncnc3nc[nH]c23)c1
